Laboratory results reported in patent US5607926A, “Cephalosporin antibiotics” (Microcide Pharmaceuticals, Inc., priority 1995, dated 1997).
In brackets after ≈: the same amount, converted by molar mass. Read-outs that look alike come from different tables or passages of the source.

How the values were obtained:
S. aureus ATCC 29213 = experiment: In vitro antibacterial evaluation, MIC by agar dilution, S. aureus ATCC 29213; type: cell-based; settings: Staphylococcus aureus, ATCC29213
Summary of the method: (§1)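 Log-phase isolates were spot-inoculated at about 10^4 cfu per spot onto Mueller-Hinton agar plates containing twofold compound dilutions (highest working concentration 128 μg/mL, lowest ≤0.25 μg/mL, duplicates). After 16-20 h at 35-36 °C, the lowest growth-inhibiting level was taken as MIC, per NCCLS agar dilution.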

S. aureus ATCC 25923 = experiment: In vitro antibacterial evaluation, MIC by agar dilution, S. aureus ATCC 25923; type: cell-based; settings: Staphylococcus aureus, ATCC25923; S. aureus ATCC 25923; read-out: MIC
Summary of the method: as §1

[1] = tested on: S. epidermidis ATCC 31432; experiment: In vitro antibacterial evaluation, MIC by agar dilution, S. epidermidis ATCC 31432; type: cell-based; settings: Staphylococcus epidermidis, ATCC31432; S. epidermidis ATCC 31432; read-out: MIC
Summary of the method: as §1

[2] = tested on: S. aureus Col (Meth^R)(lac^-); experiment: In vitro antibacterial evaluation, MIC by agar dilution, S. aureus Col; type: cell-based; settings: S. aureus Col
Description: (§2) The compounds of the invention were evaluated against several β-lactamresistant bacteria strains by determining the minimum inhibitory concentration (MIC, μg/ml) of each compound with respect to each strain. The MIC, the lowest concentration of antibiotic which inhibits growth of the test organism, was determined by the agar dilution method.
(§3) To determine the MIC for bacterial isolates, the test compound was incorporated in a series of two-fold dilutions into liquified Mueller-Hinton agar. Upon solidification, a number of different bacterial strains were spot inoculated with a replicating device onto the agar surface. […] The procedures used in these studies have been standardized by the National Committee for Clinical Laboratory Standards (NCCLS), as per the NCCLS publication entitled METHODS FOR DILUTION ANTIMICROBIAL SUSCEPTIBILITY TESTS (1991), which is incorporated herein by reference.
(§4) Aliquots of antimicrobial agents were prepared in phosphate buffered saline (PBS) at pH 7.2. Tween 20 or DMSO was used as a solubilizing vehicle as needed. Standard methods of vortexing, sonicating and gentle heat were used to facilitate solubilizing the test agent. Typically, the concentration of the stock solution was 10× that of the highest drug concentration tested. A 1.28 mg/mL stock solution was used with a subsequent highest working concentration of 128 μg/mL. Serial two-fold dilutions were done through ≤0.25 μg/mL. Each drug level was tested in duplicate. Two-fold drug dilutions were done in sterile 50 mL tubes with a final drug volume of 5 mL. Upon the addition of 45 mL of molten agar, a 10-fold dilution resulted. Two, 25 mL. plates were then poured into 15×150 mm square Petri plates with grids and allowed to harden.
(§5) A control plate with a reference drug, either cefotaxime, vancomycin or imipenem, was used as the positive growth control. Stock concentrations of reference antibiotics were prepared and frozen at -80° C. Upon preparation, the control plates were sealed and stored in the refrigerator for up to 1 week prior to use; however, imipenem control plates had to be prepared just prior to use. All test plates were used within 24 hours of preparation.
(§6) Satisfactory results were obtained where the inoculum contained about 10^4 colony forming units (cfu) ±0.5 logs. Starting with pure cultures of the test isolates on agar plates, a few isolated colonies were transferred to a tube of nutrient broth and allowed to grow 4-6 hours at 35°-36° C. to reach log-phase growth. Dropwise addition of the broth culture to PBS was done to match a 0.5 McFarland turbidity standard equal to 10^8 cfu/mL. This was further diluted ten-fold in PBS to reach a working inoculum concentration of 10^7 cfu/mL. When 1 μL of the working inoculum was applied to the agar surface a concentration of about 10^4 cfu per spot was obtained.
(§7) Disposable sterile 1 μL loops were used to inoculate test plates, with each isolate in a designated grid on the agar plate. An alternate method of inoculation involved the use of a replica plater, a device with 48 steel pins allowing the simultaneous inoculation of multiple isolates. After the spots had dried, the plates were incubated at 35°-36° C. for 16-20 hours. Endpoints were assessed as the minimum inhibitory concentration (MIC) of antimicrobial agent.
The novel agents of this invention are notable for their enhanced activity against S. aureus Col and Enterococci (E. faecium and E. faecalis). […]

[3] = tested on: S. aureus 76 (Meth^R)(lac^+); experiment: In vitro antibacterial evaluation, MIC by agar dilution, S. aureus 76; type: cell-based; settings: Staphylococcus aureus, read-out: MIC
Summary of the method: as §1

[4] = tested on: S. aureus Col8A (Meth^S)(lac^-); experiment: In vitro antibacterial evaluation, MIC by agar dilution, S. aureus Col8A; type: cell-based; settings: Staphylococcus aureus
Summary of the method: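 Log-phase isolates were spot-inoculated at about 10^4 cfu onto Mueller-Hinton agar carrying duplicate two-fold compound levels, 128 μg/mL to ≤0.25 μg/mL, following NCCLS (1991). Plates were read after 16-20 h at 35°-36° C. The lowest growth-inhibiting concentration gave the MIC (μg/ml).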

S. haemolyticus (Meth^R) = experiment: In vitro antibacterial evaluation, MIC by agar dilution, S. haemolyticus; type: cell-based; settings: Staphylococcus haemolyticus, read-out: MIC
Summary of the method: as §1

E. faecium ATCC 35667 = experiment: In vitro antibacterial evaluation, MIC by agar dilution, E. faecium ATCC 35667; type: cell-based; settings: Enterococcus faecium, ATCC35667, read-out: MIC
Summary of the method: as §1

E. faecalis ATCC 29212 = experiment: In vitro antibacterial evaluation, MIC by agar dilution, E. faecalis ATCC 29212; type: cell-based; settings: Enterococcus faecalis, ATCC29212; E. faecalis ATCC 29212; read-out: MIC
Summary of the method: as §1

E. coli ATCC 25922 = experiment: In vitro antibacterial evaluation, MIC by agar dilution, E. coli ATCC 25922; type: cell-based; settings: Escherichia coli, ATCC25922, read-out: MIC
Summary of the method: as §1

P. aeruginosa ATCC 27853 = experiment: In vitro antibacterial evaluation, MIC by agar dilution, P. aeruginosa ATCC 27853; type: cell-based; settings: Pseudomonas aeruginosa, ATCC27853, read-out: MIC
Summary of the method: as §1

[5] = tested on: X. maltophilia ATCC 13637; experiment: In vitro antibacterial evaluation, MIC by agar dilution, X. maltophilia ATCC 13637; type: cell-based; settings: Stenotrophomonas maltophilia, ATCC13637
Description: as §2, §3, §4, §5, §6, §7

[6] = tested on: Enterococci (E. faecium and E. faecalis); experiment: In vitro antibacterial evaluation, Enterococci (E. faecium and E. faecalis); type: cell-based
Description: as §2, §3
Aliquots of antimicrobial agents were prepared in phosphate buffered saline (PBS) at pH 7.2. Tween 20 or DMSO was used as a solubilizing vehicle as needed. Standard methods of vortexing, sonicating and gentle heat were used to facilitate solubilizing the test agent. […]
Disposable sterile 1 μL loops were used to inoculate test plates, with each isolate in a designated grid on the agar plate. […] Endpoints were assessed as the minimum inhibitory concentration (MIC) of antimicrobial agent. […]

MRSA strains = settings: background art; cited from earlier work

Structure (SMILES) | MIC (S. aureus ATCC 29213) [mg/L] | MIC (S. aureus ATCC 25923) [mg/L] | MIC [1] [mg/L] | activity against S. aureus Col, S. aureus Col 8A and Enterococci ([2]; S. aureus Col 8A, Enterococci) | MIC [3] [mg/L] | MIC [4] [mg/L] | MIC (S. haemolyticus (Meth^R)) [mg/L] | MIC (E. faecium ATCC 35667) [mg/L] | MIC (E. faecalis ATCC 29212) [mg/L] | MIC (E. coli ATCC 25922) [mg/L] | MIC (P. aeruginosa ATCC 27853) [mg/L] | MIC [5] [mg/L] | MIC (S. aureus ATCC 29213; S. aureus ATCC 29213, read-out: MIC) [mg/L] | activity against S. aureus Col [2] | activity against enterococci [6] | activity against MRSA strains (MRSA strains)
O=C(Cc1ccccc1)N[C@@H]1C(=O)N2C(C(=O)O)=C(Sc3ccccc3-c3ccccc3)CS[C@H]12 [Cmpd 9, (7R)-7-((Phenylacetyl)amino]-3-(2-biphenylthio)-3-cephem-4-carboxylic acid] | 0.25 (≈ 0.497 µM) | 0.125 (≈ 0.249 µM) | 0.125 (≈ 0.249 µM) | broad activity against both S. aureus Col and S. aureus Col 8A, as well as Enterococci | 8 (≈ 15.9 µM) | 0.25 (≈ 0.497 µM) | 0.125 (≈ 0.249 µM) | 2 (≈ 3.98 µM) | 4 (≈ 7.96 µM) | > 32 | > 32 | > 32 |  |  |  | 
O=C(Cc1ccccc1)N[C@@H]1C(=O)N2C(C(=O)O)=C(SCc3ccc(-c4ccccc4)cc3)CS[C@H]12 [Cmpd 12, (7R)-7-[(Phenylacetyl)amino]-3-(4-biphenylmethylthio)-3-cephem-4-carboxylic acid] |  | < 0.06 | < 0.06 |  |  | < 0.06 |  |  | 4 (≈ 7.74 µM) | > 32 | > 32 | > 32 | < 0.06 | lacking activity against S. aureus Col | potent activity against enterococci | 
C[C@@H](O)[C@H]1C(=O)N2C(C(=O)O)=C(SCCN=CN)C[C@H]12 [imipenem] |  |  |  |  |  |  |  |  |  |  |  |  |  |  |  | active against a few MRSA strains
